Tests used:
[1] = tested on: B16F10 cultured mouse melanoma cells; assay type: cell-based
Excerpt: B16F10 cultured mouse melanoma cells (ATCC, Rockville, Md.) were used in this experiment. The cells were maintained using standard procedures (Ara et al. 1990, Weight et al. 2006, Zharov et al. 2006), including serial passage in phenol-free RPMI 1640 medium (Invitrogen, Carlsbad, Calif.) supplemented with 10% fetal bovine serum (FBS, Invitrogen). For comparison to the detection of unlabeled melanoma cells, the endogenous cell absorption was increased by staining with ICG (Akorn Inc., USA), a strongly absorbent dye in the NIR range, for 30 min at 37° C. and in the presence of 5% CO2.

[2] = mouse, in vivo
Excerpt: In this experiment, a prototype PAFC system was used to detect Lymphazurin circulating in the blood vessels of a mouse ear.
The prototype PAFC system was built on the platform of an Olympus BX51 microscope (Olympus America, Inc.) and a tunable optical parametric oscillator (OPO) pumped by an Nd:YAG laser (Lotis Ltd., Minsk, Belarus). […] Laser energy was directed to the blood vessels using a conventional lens, or an optical fiber. PA waves emitted by the cells were detected by ultrasound transducers (unfocused Panametrics model XMS-310, 10 MHz; focused cylindrical Panametrics model V312-SM, 10 MHz, focused lengths of 6 mm, 12 mm, and 55 mm; and customized resonance transducers), and the ultrasound transducer outputs were conditioned by an amplifier (Panametrics model 5662, bandwidth 50 kHz-5 MHz; Panametrics model 5678, bandwidth 50 kHz-40 MHz; customized amplifiers with adjustable high and low frequency boundaries in the range to 50-200 KHz and 1-20 MHz, respectively; resonance bandwidth of 0.3-1.0 MHz). The amplifier output signals were recorded with a Boxcar data acquisition system (Stanford Research Systems, Inc.) and a Tektronix TDS 3032B oscilloscope, and were analyzed using standard and customized software. […] The signals from the oscilloscope screen were recorded with a digital camera (Sony, Inc.) and video camera (JVC, Inc.). […]

SMILES	toxicity after labeling (trypan blue exclusion) [1]	clearance of Lymphazurin from the blood [2]
CC1(C)C(/C=C/C=C/C=C/C=C2\N(CCCCS(=O)(=O)O)c3ccc4ccccc4c3C2(C)C)=[N+](CCCCS(=O)(=O)[O-])c2ccc3ccccc3c21 [ICG, Indocyanine Green]	No toxicity was observed	–
CCN(CC)c1ccc(C(=C2C=CC(=[N+](CC)CC)C=C2)c2cc(S(=O)(=O)[O-])ccc2S(=O)(=O)[O-])cc1.[Na+] [Lymphazurin, Isosulfan Blue]	–	50 min
